Test results taken from ChEMBL document CHEMBL5120771, “Synthesis, equilibrium, and biological study of a C-7 glucose boronic acid derivative as a potential candidate for boron neutron capture therapy” (Bioorg Med Chem, 2022).

Columns and labels:
[1] = test system: Fibroblast; test: Cytotoxicity against human fibroblasts assessed as reduction in cell viability at 0.01 to 3 mM measured after 24 hrs by MTT assay; type: toxicity, cell-based; conditions: 3000 µM, dose 0.01-3 mM
[2] = test system: Fibroblast; test: Cytotoxicity against human fibroblasts assessed as reduction in cell viability at 0.01 to 3 mM measured after 72 hrs by MTT assay relative to control; type: toxicity, cell-based; conditions: 3000 µM, dose 0.01-3 mM
[3] = Drug uptake in human fibroblasts assessed as boron accumulation at 1 mM measured after 24 hrs per mg of cell pellet by ICP-MS analysis (reference value: 0.30 +/- 0.09 ng/mg); type: ADME, cell-based; conditions: fibroblast, 1000 µM
[4] = test system: D54 cell line; test: Cytotoxicity against human D54 cells assessed as cell killing at 1 mM measured after 72 hrs by MTT assay; type: functional
[5] = Drug uptake in human D54 cells assessed as boron accumulation at 1 mM measured after 2 hrs per mg of cell pellet by ICP-MS analysis (reference value: 0.15 +/- 0.19 ng/mg); type: ADME, cell-based; conditions: d54, 2 h, 1000 µM
[6] = Drug uptake in human D54 cells assessed as boron accumulation at 1 mM measured after 24 hrs per mg of cell pellet by ICP-MS analysis (reference value: 0.15 +/- 0.19 ng/mg); type: ADME, cell-based; conditions: d54, 24 h, 1000 µM

SMILES	Activity [1]	Activity [2] [%]	Drug uptake [3] [ng/mg]	Activity [4] [%]	Drug uptake [5] [ng/mg]	Drug uptake [6] [ng/mg]
OB1CC[C@H]2OC(O)[C@H](O)[C@@H](O)[C@@H]2O1 (some centres not stated)	Non-Toxic	-10	0.85	15	3	6
N[C@@H](Cc1ccc(B(O)O)cc1)C(=O)O	–	-19	–	–	–	–
